Measurements as given in US11028084B2, “Selective inhibitors of gentotoxic steress-induced IKK/NF-κB pathways” (Max-Delbrück-Centrum für Molekulare Medizin in der …, priority 2016, dated 2021).

Experiments:
[1] = test system: genotoxic stress-activated NF-κB signaling; assay: TAK1 and p65 S536 phosphorylation after γ-irradiation, WB, HepG2 cells; format: cell-based, human; settings: HepG2, 90 min after irradiation, PARP inhibitors
Procedure: FIG. 6: (A) U2OS cells were pre-treated with DMSO or MW01 and irradiated. Stimulation of cell with IL-1β served as a positive control for IκBα and p65 phosphorylation. Cells were lysed at indicated time points and used for WB analyses. (B,C) Similar experimental setup as in (A). (D) Experiment as in (A-C), but with other time points analysed and performed with HepG2 cells. PARP1 and LDH serve as loading controls.
(§1) FIG. 9: HepG2 cells were pre-incubated with DMSO, MW01 (5 μM) or the ATM inhibitor Ku55933 (10 μM) and irradiated. After 60 min cells were harvested and processed. Immunochemical staining of Western blotting membranes was done using indicated antibodies.
(§2) FIG. 14: (A) U2OS cells were pre-treated with different concentrations of olaparib prior to co-treatment with etoposide. Whole cell lysis was performed after 90 min and cleared lysates were used for WB with indicated antibodies. (B) U2OS cells were pre-treated with DMSO, olaparib or the ATM inhibitor Ku55933 and co-treated with etoposide. Cells were harvested after 45 min and subjected to SDS-PAGE/WB. Membranes were stained with the indicated antibodies. The experiment of (B) was performed simultaneously to the experiments of (A) and (E) to control functionality of olaparib in inhibiting PAR chain formation. (C) Densitometrical analyses of (A) and two further independent experiments done as shown in (A). (D) U2OS cells were pre-treated with the substances as indicated prior to irradiation. After 90 min mRNA was isolated, transcribed into cDNA and was used for expression analyses of the indicated genes using quantitative real-time PCR (qRT-PCR). (E) HepG2 cells were pre-treated with the PARP inhibitors olaparib, 3-AB and EB-47 prior to γ-irradiation. Cells were harvested after 15 and 90 min and subjected to SDS-PAGE/WB. Membranes were stained with the indicated antibodies. Error bars equal SEM.

[2] = test system: NF-κB target genes NFKBIA, TNFAIP3, CXCL8; assay: qRT-PCR of NF-κB target genes after irradiation, U2OS cells; format: cell-based, human; settings: 90 min after irradiation
Procedure: as §2
To quantitate specific mRNA (messenger RNA) species in samples RNA was isolated, RNA concentration was measured and mRNA was transcribed into cDNA. The amount of mRNA transcripts of certain genes within a sample was quantified by employing gene specific primers and using a C-1000 Thermal cycler (Biorad). The expression of genes of interest was normalised against two or three reference genes (HRPT1, RPL_13a and B2M) using the CFX manager software. The fold induction of mRNA was calculated over untreated sample levels by the ΔΔ-Ct method.

[3] = test system: p65 S536 phosphorylation; assay: p65 S536 phosphorylation after γ-IR or etoposide, SDS-PAGE/WB, U2OS cells; format: cell-based, human
Procedure: FIG. 3: (A) U2OS cells were pre-treated with increasing concentrations of MW01 in duplicates in a 384 well plate. Then, cells were treated with etoposide, fixed and subjected to IF of p65. Spatial measurement of p65 cytosolic and nuclear localisation was used for calculation of p65 translocation rates. (B) U2OS cells were pre-treated with DMSO, MW01 and irradiated with γ-IR. After 90 min cells were lysed and subjected to SDS-PAGE/WB and EMSA. (C) Cells were pre-treated with different concentrations of MW01 as indicated, treated with γ-IR (C) or etoposide (D) and subjected to WB or EMSA, respectively. LDH in (C) represents the loading control.
as §2, with “Cells were harvested after 15 and 90 min and subjected to SDS-PAGE/WB. Membranes were stained with the indicated antibodies. Error bars equal SEM.” left out
After transfer of proteins on PVDF membranes unspecific binding of antibodies was blocked by incubation of membranes in 5% skim milk powder in TBST buffer (or 3% BSA in TBST for phosphorylation-specific antibodies) for 1 h at RT. […] After three times of washing with TBST and once with PBS for 5 min, chemiluminescent photon emission was detected using a CCD camera system (Fusion Solo). […]

[4] = test system: NF-κB DNA binding activity; settings: HEK293; data not shown, personal communication; cited from earlier work
[5] = target: T1, PARP1 (Mus musculus, UniProt P11103); assay: PARP1 enzymatic activity, PAR chain formation after γ-irradiation, MEF cells; format: cell-based
T1 construct: endogenous in cells; host or cells: MEF (mouse embryonic fibroblasts)
T1 sequence (P11103 whole entry): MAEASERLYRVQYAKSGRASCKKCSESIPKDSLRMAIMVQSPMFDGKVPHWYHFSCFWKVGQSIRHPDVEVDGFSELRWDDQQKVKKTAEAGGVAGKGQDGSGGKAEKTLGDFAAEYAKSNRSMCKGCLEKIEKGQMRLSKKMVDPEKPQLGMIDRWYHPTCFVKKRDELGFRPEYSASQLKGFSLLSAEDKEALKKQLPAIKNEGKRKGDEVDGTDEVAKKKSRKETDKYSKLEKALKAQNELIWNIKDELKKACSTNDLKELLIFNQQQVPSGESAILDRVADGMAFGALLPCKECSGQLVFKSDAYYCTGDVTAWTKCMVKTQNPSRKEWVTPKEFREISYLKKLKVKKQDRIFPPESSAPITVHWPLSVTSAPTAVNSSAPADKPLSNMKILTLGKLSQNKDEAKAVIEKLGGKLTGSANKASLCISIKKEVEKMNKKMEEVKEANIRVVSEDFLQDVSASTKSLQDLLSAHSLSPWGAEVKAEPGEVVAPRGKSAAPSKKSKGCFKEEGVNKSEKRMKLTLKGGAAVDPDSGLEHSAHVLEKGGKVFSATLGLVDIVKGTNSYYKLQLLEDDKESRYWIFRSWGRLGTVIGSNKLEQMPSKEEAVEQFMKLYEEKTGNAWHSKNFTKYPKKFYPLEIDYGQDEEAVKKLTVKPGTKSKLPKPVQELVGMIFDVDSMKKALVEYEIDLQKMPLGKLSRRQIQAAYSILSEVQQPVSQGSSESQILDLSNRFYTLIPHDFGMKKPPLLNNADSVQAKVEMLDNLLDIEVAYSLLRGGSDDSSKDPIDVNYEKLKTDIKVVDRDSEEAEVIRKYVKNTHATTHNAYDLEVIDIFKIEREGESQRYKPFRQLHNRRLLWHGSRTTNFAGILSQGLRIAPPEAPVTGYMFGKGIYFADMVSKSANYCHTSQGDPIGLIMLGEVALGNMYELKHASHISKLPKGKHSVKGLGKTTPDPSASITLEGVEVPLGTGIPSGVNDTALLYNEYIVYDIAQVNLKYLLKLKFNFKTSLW
Excerpt: FIG. 10: (A) MEF cells were pre-treated with the indicated substances, irradiated and cell lysates were used for poly(ADP)-ribose probing using a specific antibody. (B) Experiment performed as described for (A), but using U2OS cells.

[6] = target: T2, PARP1 (Homo sapiens, UniProt P09874); assay: PAR chain formation after γ-irradiation, HepG2 cells; format: cell-based; design: endogenous in cells; settings: HepG2, 15 min after irradiation
T2 sequence (P09874 whole entry): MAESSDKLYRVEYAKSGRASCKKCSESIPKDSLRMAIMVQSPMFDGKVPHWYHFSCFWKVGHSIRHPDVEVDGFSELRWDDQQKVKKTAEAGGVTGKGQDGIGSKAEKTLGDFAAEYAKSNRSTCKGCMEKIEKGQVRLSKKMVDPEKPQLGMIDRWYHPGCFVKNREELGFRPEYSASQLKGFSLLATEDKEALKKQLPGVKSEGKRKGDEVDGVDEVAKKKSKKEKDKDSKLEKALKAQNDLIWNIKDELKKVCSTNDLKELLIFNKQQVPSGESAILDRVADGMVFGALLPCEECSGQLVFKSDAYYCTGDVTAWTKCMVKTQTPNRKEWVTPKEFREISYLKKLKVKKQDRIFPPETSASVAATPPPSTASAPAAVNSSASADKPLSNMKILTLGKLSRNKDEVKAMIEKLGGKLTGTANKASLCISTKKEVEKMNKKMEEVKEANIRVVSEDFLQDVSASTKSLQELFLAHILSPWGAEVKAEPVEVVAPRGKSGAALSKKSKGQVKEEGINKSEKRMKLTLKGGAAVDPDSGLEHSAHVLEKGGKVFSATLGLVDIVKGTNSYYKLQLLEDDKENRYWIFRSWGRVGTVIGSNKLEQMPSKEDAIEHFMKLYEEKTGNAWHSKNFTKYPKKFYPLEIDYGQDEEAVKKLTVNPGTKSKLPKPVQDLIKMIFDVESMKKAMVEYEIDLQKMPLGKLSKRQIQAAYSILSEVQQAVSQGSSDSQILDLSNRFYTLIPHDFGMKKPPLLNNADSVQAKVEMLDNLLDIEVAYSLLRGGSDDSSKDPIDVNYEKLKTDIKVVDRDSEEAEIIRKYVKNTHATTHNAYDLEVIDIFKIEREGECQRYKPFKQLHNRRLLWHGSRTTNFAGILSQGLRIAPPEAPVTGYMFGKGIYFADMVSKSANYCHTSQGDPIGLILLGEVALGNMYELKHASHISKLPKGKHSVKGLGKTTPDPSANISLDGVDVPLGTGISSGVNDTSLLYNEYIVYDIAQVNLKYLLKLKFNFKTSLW
Procedure: as §2

[7] = target: T2, PARP1; settings: HepG2, after γ-irradiation (Stilmann et al.; 2009); cited from earlier work
[8] = target: T1, PARP1; settings: MEF, after etoposide administration (Stilmann et al.; 2009); cited from earlier work
[9] = test system: genotoxic stress-induced phosphorylation of p65 at S536; assay: Structure-activity-relationship: p-p65 S536/p65 densitometry after etoposide, U2OS cells; format: cell-based, human; settings: 10 μM, 2 h prior to etoposide, normalised to DMSO/etoposide
Procedure: FIG. 13: (A) U2OS cells were pre-treated with DMSO, MW01 or its derivatives MW01A1-MW01C5 at concentrations of 10 μM for 2 h prior to etoposide treatment. After incubation with etoposide cells were harvested, lysed and subjected to SDS-PAGE/WB. Phospho-[…] p65 signal intensities as well as p65 signal intensities were detected using a CCD camera and band intensities were used for densitometrical analyses. DMSO and etoposide treated control was set to 1. Four independent experiments were performed and statistical outliers were identified and eliminated using Grubb's test. […] (B) NFkB/293/GFP-luc cells were pre-treated with DMSO, MW01 or its derivatives MW01D01-MW01D18 at concentrations of 10 μM for 1.5 h prior to etoposide treatment. After incubation for 4.5 hours NF-κB-dependent luciferase expression was measured by detection of chemoluminescence. DMSO and etoposide treated control was set to 1. Twelve independent experiments were performed.
Different derivatives of MW01 were obtained (FIG. 12 A) and tested for their ability to inhibit genotoxic stress-induced phosphorylation of p65 at S536. Densitometry of western blot bands was used to quantify signal intensities of the p65 S536 phosphorylation and total p65 amount. The signal intensities of the p65 S536 phosphorylation were normalised to the signal intensities of total p65 and the quotients were normalised to DMSO/etoposide and compared with MW01/etoposide co-treated samples (FIG. 13). […] Compared to MW01, these compounds are derivatives in which the hydroxyl group was exchanged with a small substitute either fluoride, chloride or a methyl group, respectively. Furthermore, MW01C3 and MW01C4 differed in the substitution of the aromatic ring system V (FIG. 12 B) regarding the two methoxy groups that are missing.

[10] = target: T3, ATM (Homo sapiens, UniProt Q13315); assay: Enzymatic activity of ATM in γ-irradiated HepG2 cells, WB of ATM and substrate phosphorylation; format: cell-based; settings: HepG2, γ-irradiation, 60 min; MW01 5 μM, Ku55933 10 μM
T3 construct: endogenous in cells; host or cells: HepG2
T3 sequence (Q13315 whole entry): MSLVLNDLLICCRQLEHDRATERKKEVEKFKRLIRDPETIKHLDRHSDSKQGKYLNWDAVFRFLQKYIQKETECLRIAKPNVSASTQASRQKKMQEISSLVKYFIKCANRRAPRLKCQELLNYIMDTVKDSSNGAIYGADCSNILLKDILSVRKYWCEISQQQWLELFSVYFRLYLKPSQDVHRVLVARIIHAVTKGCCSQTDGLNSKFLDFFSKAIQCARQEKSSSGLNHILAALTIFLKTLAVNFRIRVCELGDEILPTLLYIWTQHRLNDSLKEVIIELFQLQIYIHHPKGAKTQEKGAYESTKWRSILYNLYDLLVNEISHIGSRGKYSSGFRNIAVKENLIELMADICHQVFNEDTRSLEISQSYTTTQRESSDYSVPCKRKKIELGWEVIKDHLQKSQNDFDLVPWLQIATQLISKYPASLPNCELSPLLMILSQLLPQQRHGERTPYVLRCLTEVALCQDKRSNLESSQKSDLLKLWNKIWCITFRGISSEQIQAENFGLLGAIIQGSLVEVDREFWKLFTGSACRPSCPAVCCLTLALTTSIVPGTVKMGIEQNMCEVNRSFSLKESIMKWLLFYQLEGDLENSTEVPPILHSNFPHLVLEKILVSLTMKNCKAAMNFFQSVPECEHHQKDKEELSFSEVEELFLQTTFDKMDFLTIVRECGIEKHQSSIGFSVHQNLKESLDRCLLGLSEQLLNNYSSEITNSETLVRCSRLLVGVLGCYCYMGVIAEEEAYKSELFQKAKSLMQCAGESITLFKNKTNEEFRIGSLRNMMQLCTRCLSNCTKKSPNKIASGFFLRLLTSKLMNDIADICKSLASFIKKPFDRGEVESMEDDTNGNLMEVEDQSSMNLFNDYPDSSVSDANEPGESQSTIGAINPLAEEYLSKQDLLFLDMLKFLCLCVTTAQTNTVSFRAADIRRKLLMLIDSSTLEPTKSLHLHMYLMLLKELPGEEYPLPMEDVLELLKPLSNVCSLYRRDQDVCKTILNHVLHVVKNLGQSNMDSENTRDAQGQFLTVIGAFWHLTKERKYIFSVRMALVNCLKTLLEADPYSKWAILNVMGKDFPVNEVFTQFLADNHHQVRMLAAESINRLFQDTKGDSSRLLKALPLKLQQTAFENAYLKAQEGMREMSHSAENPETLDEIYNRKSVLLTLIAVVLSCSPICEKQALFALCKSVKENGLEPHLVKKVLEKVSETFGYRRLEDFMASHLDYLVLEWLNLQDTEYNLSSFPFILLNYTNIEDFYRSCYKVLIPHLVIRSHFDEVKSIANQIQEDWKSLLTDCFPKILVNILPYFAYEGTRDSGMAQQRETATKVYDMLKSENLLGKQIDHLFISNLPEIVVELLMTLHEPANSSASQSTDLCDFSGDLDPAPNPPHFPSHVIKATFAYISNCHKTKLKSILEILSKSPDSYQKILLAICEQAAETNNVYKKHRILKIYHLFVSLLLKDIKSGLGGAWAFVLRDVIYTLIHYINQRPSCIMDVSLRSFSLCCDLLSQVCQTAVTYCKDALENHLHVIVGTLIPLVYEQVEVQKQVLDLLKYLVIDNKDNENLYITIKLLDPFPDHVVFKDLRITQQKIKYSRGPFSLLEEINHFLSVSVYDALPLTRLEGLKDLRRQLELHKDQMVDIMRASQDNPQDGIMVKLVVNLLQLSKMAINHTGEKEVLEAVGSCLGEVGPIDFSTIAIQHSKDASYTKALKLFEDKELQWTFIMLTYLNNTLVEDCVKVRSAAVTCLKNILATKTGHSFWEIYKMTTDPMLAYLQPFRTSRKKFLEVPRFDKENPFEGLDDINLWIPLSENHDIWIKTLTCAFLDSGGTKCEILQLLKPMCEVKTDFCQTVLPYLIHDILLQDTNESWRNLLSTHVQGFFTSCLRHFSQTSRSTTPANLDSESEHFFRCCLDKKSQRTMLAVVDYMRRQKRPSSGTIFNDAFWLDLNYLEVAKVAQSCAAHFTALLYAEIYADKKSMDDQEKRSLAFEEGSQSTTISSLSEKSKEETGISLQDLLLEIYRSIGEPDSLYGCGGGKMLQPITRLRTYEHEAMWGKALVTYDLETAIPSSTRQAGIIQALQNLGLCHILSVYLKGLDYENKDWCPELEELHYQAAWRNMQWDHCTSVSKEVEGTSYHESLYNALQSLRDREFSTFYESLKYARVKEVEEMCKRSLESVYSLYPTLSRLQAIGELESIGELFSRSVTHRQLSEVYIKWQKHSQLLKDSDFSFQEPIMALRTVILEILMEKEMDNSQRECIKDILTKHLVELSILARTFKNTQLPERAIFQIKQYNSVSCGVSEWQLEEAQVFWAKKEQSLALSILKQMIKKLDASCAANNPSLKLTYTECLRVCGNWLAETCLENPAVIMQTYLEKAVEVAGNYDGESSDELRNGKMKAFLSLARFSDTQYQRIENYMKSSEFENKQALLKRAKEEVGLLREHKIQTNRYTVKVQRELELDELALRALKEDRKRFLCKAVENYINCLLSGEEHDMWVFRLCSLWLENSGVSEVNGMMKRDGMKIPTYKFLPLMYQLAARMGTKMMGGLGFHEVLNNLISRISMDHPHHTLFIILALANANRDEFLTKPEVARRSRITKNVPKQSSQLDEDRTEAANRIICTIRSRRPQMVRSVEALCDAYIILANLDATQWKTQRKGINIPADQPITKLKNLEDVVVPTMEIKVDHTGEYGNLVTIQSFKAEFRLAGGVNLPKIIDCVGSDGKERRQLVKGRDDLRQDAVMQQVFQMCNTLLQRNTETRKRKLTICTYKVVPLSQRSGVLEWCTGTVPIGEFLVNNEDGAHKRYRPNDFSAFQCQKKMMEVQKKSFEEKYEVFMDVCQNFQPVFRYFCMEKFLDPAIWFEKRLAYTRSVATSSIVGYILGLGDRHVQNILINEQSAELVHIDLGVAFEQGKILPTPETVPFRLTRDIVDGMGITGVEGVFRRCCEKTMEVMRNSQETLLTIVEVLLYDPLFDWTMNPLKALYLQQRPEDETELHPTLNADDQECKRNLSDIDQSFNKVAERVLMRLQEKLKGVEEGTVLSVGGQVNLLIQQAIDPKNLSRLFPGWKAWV
Procedure: as §1

O=C(c1cc(Cc2n[nH]c(=O)c3ccccc23)ccc1F)N1CCN(C(=O)C2CC2)CC1 [olaparib]
phosphorylation of p65 at S536 [1]: decreased phosphorylation | NFKBIA, TNFAIP3 and CXCL8 mRNA induction upon irradiation [2]: did not change | p65 S536 phosphorylation in comparison to DMSO/etoposide co-treated controls ([3]; 0.63 μM to 10.0 μM, 90 min after etoposide): No significant decrease | signal intensity ratio of S536 phosphorylated p65 and total p65 (densitometry, three experiments) ([3]; etoposide co-treatment): did not influence

NC(=O)c1cccc(N)c1 [Example 3-AB]
NF-κB DNA binding activity [4]: did not abolish | phosphorylation of p65 at S536 [1]: decreased phosphorylation | PAR chain formation / PARP1 enzymatic activity [5]: inhibition of PAR chain formation | PAR chain formation [6]: abolished | PAR chain formation and NF-κB DNA binding activity [7]: inhibited PAR chain formation and NF-κB DNA binding activity | PAR chain formation and NF-κB binding activity [8]: abrogated PAR chain formation and NF-κB binding activity

COc1ccc2c3ccnc4c5ccc(OC)c(OC)c5c(=O)n(c2c1)c34 [MW01C1, 6,7,11-trimethoxy-8H-benzo[c]indolo[3,2,1-ij][1,5]naphthyridin-8-one]
p-p65/p65 ratio (inhibition of NF-κB activation following etoposide co-treatment) [9]: highly potent derivative

Nc1ncnc2c1ncn2[C@@H]1O[C@H](C(=O)N2CCN(CC(=O)Nc3cccc4c3CNC4=O)CC2)[C@@H](O)[C@H]1O [EB-47]
phosphorylation of p65 at S536 [1]: detected | PAR chain formation / PARP1 enzymatic activity [5]: inhibition of PAR chain formation | PAR chain formation [6]: abolished | PAR chain formation and NF-κB binding activity [8]: abrogated PAR chain formation and NF-κB binding activity

Cc1ccc2c(c1)c1ccnc3c4ccccc4c(=O)n2c13 [MW01C3, 12-methyl-8H-benzo[c]indolo[3,2,1-ij][1,5]naphthyridin-8-one]
p-p65/p65 ratio (inhibition of NF-κB activation following etoposide co-treatment) [9]: lowest p-p65/p65 ratios

O=c1cc(-c2cccc3c2Sc2ccccc2S3)oc(N2CCOCC2)c1 [KU55933, reference compound]
NFKBIA, TNFAIP3 and CXCL8 mRNA induction upon irradiation [2]: complete inhibition | ATM auto-phosphorylation and phosphorylation of the ATM substrates p53 and KAP1 [10]: inhibited | phosphorylation state of p53bp1 [10]: inhibited

O=c1c2ccccc2c2nccc3c4cc(Cl)ccc4n1c32 [MW01C4, 12-chloro-8H-benzo[c]indolo[3,2,1-ij][1,5]naphthyridin-8-one]
p-p65/p65 ratio (inhibition of NF-κB activation following etoposide co-treatment) [9]: lowest p-p65/p65 ratios

COc1ccc2c(c1OC)c(=O)n1c3ccc(F)cc3c3ccnc2c31 [MW01C2, 12-fluoro-6,7-dimethoxy-8H-benzo[c]indolo[3,2,1-ij][1,5]naphthyridin-8-one]
p-p65/p65 ratio (inhibition of NF-κB activation following etoposide co-treatment) [9]: lowest p-p65/p65 ratios
